Experimental findings from patent US20150306232A1, “HYDROGELATORS COMPRISING D-AMINO ACIDS” (BRANDEIS UNIVERSITY, priority 2012, published 2015) are described below.

Non-standard residues stand in square brackets, D forms with d. Residues, ends and D or L forms follow the SMILES beside them. *: point of attachment. Paclitaxel(2'-O-succinyl) = CC(=O)O[C@H]1C(=O)[C@@]2(C)[C@H]([C@H](OC(=O)c3ccccc3)[C@]3(O)C[C@H](OC(=O)[C@H](OC(=O)CCC(=O)*)[C@@H](NC(=O)c4ccccc4)c4ccccc4)C(C)=C1C3(C)C)[C@]1(OC(C)=O)CO[C@@H]1C[C@@H]2O; Naproxen = COc1ccc2cc([C@H](C)C(=O)*)ccc2c1; d(pY) = N[C@H](Cc1ccc(OP(=O)(O)O)cc1)C(=O)O; Acetyl(2-naphthyl) = O=C(Cc1ccc2ccccc2c1)*

One series has as its system HeLa cells. In words: cells. The format is cell-based. The settings on record: 72 hours at 37° C., MTT; read-out: IC50, HeLa cell viability. As to the method: We seeded […] (cells/well) of health HeLa cells into 96-well plate with 100 μL of MEM medium supplemented with 10% fetal bovine serum (FBS), 100 U/mL penicillin and 100 mg mL21 streptomycin. The incubation at 37° C. and 5% CO2 for 12 hours allowed HeLa cells to attach the bottom of 96-well plate. Then we replaced the medium by another 100 μL of growth medium that contained serial diluents of our compounds (0.5% DMSO) and then incubated the cells at 37° C. and 5% CO2 for additional 72 hours. During the measurement of proliferation for HeLa cells, which were assayed into three days, we added 10 μL of (3-(4,5-Dimethylthiazol-2-yl)-2,5-diphenyltetrazolium bromide (MTT, 0.5 mg/mL) into the assigned wells in their corresponding day every 24 hours, which was followed by adding 100 μL of 0.1% sodium dodecyl sulfate (SDS) 4 hours later. Then we collected the assay results after another 24 hours incubation. Since the mitochondrial reductase in living cells reduced MTT to purple fomazan, the absorbance at 595 nm of the whole solution was finally measured by DTX 880 Multimode Detector. With MEM medium as blank and untreated HeLa cells as control, we measure each concentration of these compounds in triplicate. The IC50 values of our hydrogelators were read from their activity curves (with the measurement of 8 different concentrations) in day 3.

A short description of series [1]: enzymatic hydrogelation with ALP. The format is physicochemical. The settings on record: water, pH 7.4. The procedure: To investigate the enzymatic hydrogelation of the D-peptidic precursor 11b, we prepared a series of hydrogels formed by using ALP to treat 11b at different concentrations. After dissolving 1.0, 2.0, 3.0, 4.0, and 5.0 mg of 11b in 0.5 mL of water (pH 7.6), respectively, we obtained clear solutions of 11b with different concentrations. The treatment of the solutions of 11b with ALP (1.0 U/mL) afforded the molecules of hydrogelator 12b, which are less soluble than 11b and thus self-assemble in water to form hydrogels when the concentrations of 12b are sufficient.
All the compounds were dissolved in de-ionized water. We then adjusted pH of the solutions carefully adding 1 M of NaOH and 1 M of HCl and measured the values by pH paper (pH 6.0-8.0). After prepared clear weakly basic solutions (pH 7.6 or 7.4), we then formed the hydrogels by adding enzymes (alkaline phosphatase).

Series [2] in a line: toxicity and relative weight of treated mice. The format is in vivo, Balb/c mice. As to conditions: hydrogel, single intratumoral injection, 14 days.
The next series concerns the target COX-2 (Homo sapiens, UniProt P35354). In words: COX-2 (μM). An excerpt:
(§1) Table printed on a drawing sheet, Figure 7
Head of the field: COX-2 (μM)
(§2) First copying reader's note: The head cell at top left is split by a diagonal line (IC50 for the columns, Hydrogel for the rows); the footnote for the mark ^a is not printed on the sheet.
Where the first naming reader finds the target: head: COX-2 (μM)

For a further series, the system named is COX-1. In words: COX-1 (μM).
Excerpt: as §1
Head of the field: COX-1 (μM)
as §2
Where the first naming reader finds the target: head: COX-1 (μM)

Series [3] in a line: rheological measurement of Npx containing hydrogels. The settings on record: hydrogel 0.8 wt %; for storage modulus G′: 6.28 rad/s. The format is physicochemical. As to the method:
Rheological tests were conducted on TA ARES G2 rheometer with TA Orchestrator Software. 25 mm cone-plate was used during the experiment. 0.2 mL of hydrogel sample was placed on the cone-plate.
The measurement performs at the frequency of 6.28 rad/s (0.1 to 10% strain, frequency=10 rads^−1, 10 points per decade). Sweep mode is “log” and temperature was carried out at 25° C. The critical strain (γc) value was determined from the storage-strain profiles of the hydrogel sample. The strain applied to the hydrogel sample increased from 0.1 to 100% (10 rad/s and 25° C.). Over a certain strain, a drop in the elastic modulus was observed, and the strain amplitude at which storage moduli just begins to decrease by 5% from its maximum value was determined and taken as a measure of the critical strain of the hydrogels, which correspond to the breakdown of the cross-linked network in the hydrogel sample.
The frequency ranges from 200 rad/s to 0.1 rad/s, depending on the viscoelastic properties of each sample. A suitable strain was used to ensure the linearity of dynamic viscoelasticity.

The target of a further series is T1, COX-1 (ovine) enzyme (Ovis aries, UniProt P05979).
T1 construct: purchased Cayman Chemical 700100
T1 sequence (P05979 25-600): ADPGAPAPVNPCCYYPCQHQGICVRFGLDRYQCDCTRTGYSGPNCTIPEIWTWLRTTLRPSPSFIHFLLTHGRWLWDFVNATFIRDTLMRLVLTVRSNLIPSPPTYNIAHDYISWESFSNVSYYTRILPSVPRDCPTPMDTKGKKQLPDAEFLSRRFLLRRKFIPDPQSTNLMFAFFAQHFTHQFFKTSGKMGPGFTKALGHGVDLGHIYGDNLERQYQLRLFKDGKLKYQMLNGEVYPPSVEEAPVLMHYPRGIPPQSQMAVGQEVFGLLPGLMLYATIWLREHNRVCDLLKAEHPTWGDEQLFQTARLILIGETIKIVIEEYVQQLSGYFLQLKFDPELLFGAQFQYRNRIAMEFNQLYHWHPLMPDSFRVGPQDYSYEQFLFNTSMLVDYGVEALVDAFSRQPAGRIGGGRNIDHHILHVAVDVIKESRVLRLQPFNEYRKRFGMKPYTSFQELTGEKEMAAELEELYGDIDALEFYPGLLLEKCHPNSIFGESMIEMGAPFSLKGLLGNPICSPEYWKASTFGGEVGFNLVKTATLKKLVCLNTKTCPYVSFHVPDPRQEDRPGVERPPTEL
Nature of the series: COX Fluorescent Inhibitor Screening Assay, COX-1. The format is biochemical. The settings on record: read-out: IC50 for inhibiting COX-1 enzyme. The procedure:
To study the drug efficacies of NSAID containing hydrogelators, here we used ‘COX Fluorescent Inhibitor Screening Assay Kit’ (700100; Cayman Chemical) to do in vitro inhibition assays for Npx and Npx containing hydrogelors 1, 2, 3, 4, 5, and 6. Each compound was tested by COX-1 (ovine) enzyme and COX-2 (human recombinant) enzyme separately in 96 well black assay plates. By utilizing the peroxidase component of COXs, we monitored the reaction between PGG2 and ADHP (10-acetyl-3,7-dihydroxyphenoxazine), which produced highly fluorescent compound resorufin. This resorufin can be easily analyzed by multimode detector with an excitation wavelength of 530-540 nm and an emission wavelength of 585-595 nm. All the compounds are assayed in triplicate. After the combination of 10 μl of inhibitors, 10 μl of Heme solution, 10 μL of fluorometric substrate, 10 μl of enzyme (either COX-1 or COX-2), and 150 μl of assay buffer, we quickly add 10 μl of arachidonic acid solution to initiate the reaction. Then we read the plate exactly after two minutes incubation at room temperature. In this experiment, we also measure the blank data without enzyme and inhibitors, and the control data without inhibitors. The IC50 values of these hydrogelators were read from their activity curves (FIG. 18), which were measured with 5 different concentrations of these hydrogelators (dissolved in DMSO).

Series [4] is described as follows: in vitro release of hydrogelators from hydrogels. The format is physicochemical. As to conditions: 0.8 wt % hydrogel, PBS pH 7.4, 37° C., after 24 hours. The procedure: After studying their drug efficacies, the sustained release of Npx-containing hydrogelators from 0.8 wt % of hydrogels was studied. We incubated 100 μL of hydrogels at 37° C. for 24 hours with 100 μL of PBS buffer solution (pH 7.4), which is refreshed and monitored at 1 h, 2 h, 4 h, 8 h, 12 h, and 24 h. […] After 24 hours, hydrogel 1 slowly and steadily released 6.5% of the hydrogelator. […] Hydrogels 5 and 6 release 35.8% and 31.7% of hydrogelators after 24 h.
To illustrate the in vitro release profile of hydrogelators, we prepared 100 μL of the hydrogels formed by 1 (0.8 wt %, pH 4.0), 2 (0.8 wt %, pH 7.6), 3 (0.8 wt %, pH 7.6), 4 (0.8 wt %, pH 7.6), 5 (0.8 wt %, pH 7.0), and 6 (0.8 wt %, pH 7.0). With the addition of PBS buffer (100 μL, pH 7.4) onto the surface of hydrogels, the gels were incubated at 37° C. for 24 hours. The release solutions (100 μL) were taken and refreshed at […], 2 h, 4 h, 8 h, 12 h, and 24 h, which were detected by analytical HPLC at 276 nm for the quantities of released Npx containing hydrogelators 1, 2, 3, 4, 5, and 6.

COX-2, sequence (P35354 18-604 limits assumed): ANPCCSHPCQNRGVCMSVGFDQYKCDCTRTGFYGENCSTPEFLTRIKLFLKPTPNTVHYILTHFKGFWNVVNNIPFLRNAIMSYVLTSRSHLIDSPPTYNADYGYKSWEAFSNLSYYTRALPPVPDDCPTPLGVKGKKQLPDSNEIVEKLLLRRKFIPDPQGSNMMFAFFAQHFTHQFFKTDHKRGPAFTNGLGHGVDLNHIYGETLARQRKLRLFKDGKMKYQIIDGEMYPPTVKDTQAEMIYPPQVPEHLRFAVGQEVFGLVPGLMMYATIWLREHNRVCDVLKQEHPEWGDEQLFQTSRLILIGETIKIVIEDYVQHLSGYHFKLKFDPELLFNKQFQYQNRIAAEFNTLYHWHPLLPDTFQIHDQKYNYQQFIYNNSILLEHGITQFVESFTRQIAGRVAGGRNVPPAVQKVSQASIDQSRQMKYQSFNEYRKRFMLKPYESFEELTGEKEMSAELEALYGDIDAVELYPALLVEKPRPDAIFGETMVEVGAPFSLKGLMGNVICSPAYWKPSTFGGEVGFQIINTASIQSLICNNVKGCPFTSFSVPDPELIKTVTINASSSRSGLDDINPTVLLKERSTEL

Take `CC(=O)O[C@H]1C(=O)[C@@]2(C)[C@H]([C@H](OC(=O)c3ccccc3)[C@]3(O)C[C@H](OC(=O)[C@H](OC(=O)CCC(=O)NCCCC[C@@H](NC(=O)[C@@H](Cc4ccccc4)NC(=O)[C@@H](Cc4ccccc4)NC(=O)Cc4ccc5ccccc5c4)C(=O)N[C@H](Cc4ccc(OP(=O)(O)O)cc4)C(=O)O)[C@@H](NC(=O)c4ccccc4)c4ccccc4)C(C)=C1C3(C)C)[C@]1(OC(C)=O)CO[C@@H]1C[C@@H]2O` [19b, 2-(Naphthalen-2-yl)acetyl-(D)-Phe-(D)-Phe-(D)-Lys(Taxol)-(D)-Tyr phosphate] ({Acetyl(2-naphthyl)}-[dF][dF][dK](Paclitaxel(2'-O-succinyl))[d(pY)]-OH): the IC50 in the series on HeLa cells is 0.0619 µM. Further, the solubility entry in series [1] is on record as “relatively good solubility”.
As to `CC(=O)O[C@H]1C(=O)[C@@]2(C)[C@H]([C@H](OC(=O)c3ccccc3)[C@]3(O)C[C@H](OC(=O)[C@H](OC(=O)CCC(=O)NCCCC[C@@H](NC(=O)[C@@H](Cc4ccccc4)NC(=O)[C@@H](Cc4ccccc4)NC(=O)Cc4ccc5ccccc5c4)C(=O)N[C@H](Cc4ccc(O)cc4)C(=O)O)[C@@H](NC(=O)c4ccccc4)c4ccccc4)C(C)=C1C3(C)C)[C@]1(OC(C)=O)CO[C@@H]1C[C@@H]2O` [20b] ({Acetyl(2-naphthyl)}-[dF][dF][dK](Paclitaxel(2'-O-succinyl))[dY]-OH), the IC50 in the series on HeLa cells turned out to be 0.106 µM. Besides, the “side effect from relative weights of mice” value in series [2] is on record as “limit the side effect of Taxol to the mice”. In series [1], the solubility result is reported as “relatively good solubility”.
On to `COc1ccc2cc([C@H](C)C(=O)N[C@@H](Cc3ccccc3)C(=O)N[C@@H](Cc3ccccc3)C(=O)O)ccc2c1` [L-1, Naproxen-L-Phe-L-Phe], for which the IC50 amounted to 715 µM at COX-2 and 986 µM in the series with COX-1.
The like results for `COc1ccc2cc([C@H](C)C(=O)N[C@@H](Cc3ccccc3)C(=O)N[C@@H](Cc3ccccc3)C(=O)N[C@@H](Cc3ccc(O)cc3)C(=O)O)ccc2c1` [L-2, Naproxen-L-Phe-L-Phe-L-Tyr] were, in that order, 144 µM and 294 µM.
As to `COc1ccc2cc([C@H](C)C(=O)N[C@H](Cc3ccccc3)C(=O)N[C@H](Cc3ccccc3)C(=O)O)ccc2c1` [compound 1, Naproxen-D-Phe-D-Phe], in series [3], the critical strain stood at 1.0% and the “storage modulus G′” value is on record as 5.3×10^4 Pa. In addition, the IC50 at COX-1 (ovine) enzyme was found to be 854 µM. In addition, the “hydrogelator released from hydrogel” value in series [4] amounted to 6.5%.
For the molecule `COc1ccc2cc([C@H](C)C(=O)N[C@H](Cc3ccccc3)C(=O)N[C@H](Cc3ccccc3)C(=O)N[C@H](CCCCN)C(=O)N[C@H](Cc3ccc(O)cc3)C(=O)O)ccc2c1` [compound 4, Npx-ffky] (Naproxen-[dF][dF][dK][dY]-OH), in series [3], the critical strain is 5.5% and the “storage modulus G′” value is 1.5×10^2 Pa. The “hydrogelator released from hydrogel” value in series [4] amounted to 19.8%.
For `COc1ccc2cc([C@H](C)C(=O)NCCCC[C@@H](NC(=O)[C@@H](Cc3ccccc3)NC(=O)[C@H](N)Cc3ccccc3)C(=O)O)ccc2c1` [compound 5, D-Phe-D-Phe-D-Lys(naproxen)], at COX-1 (ovine) enzyme, the concentration for half-maximal inhibition (IC50) worked out at 476 µM.
`COc1ccc2cc([C@H](C)C(=O)NCCCC[C@@H](NC(=O)[C@@H](Cc3ccccc3)NC(=O)[C@H](N)Cc3ccccc3)C(=O)N[C@H](Cc3ccc(O)cc3)C(=O)O)ccc2c1` [compound 6, D-Phe-D-Phe-D-Lys(naproxen)-D-Tyr] (H-[dF][dF][dK](Naproxen)[dY]-OH): at COX-1 (ovine) enzyme, the IC50 was 367 µM.
